Reference: ChEMBL document CHEMBL5303573, “Mapping human microbiome drug metabolism by gut bacteria and their genes” (Nature, 2019)

Tests used:
[1] = The drug is tested on Bacteroides ovatus strain: ATCC8483 for biotransformation. The drug concentrations were measured before and after a 12-h incubation by liquid-chromatography-coupled mass spectrometry (LC–MS); conditions: 2 µM
[2] = The drug is tested on Ruminococcus torques strain: ATCC27756 for biotransformation. The drug concentrations were measured before and after a 12-h incubation by liquid-chromatography-coupled mass spectrometry (LC–MS); assay type: ADME; design: dose 2 uM, timepoint 0 vs 12 hours; conditions: 2 µM
[3] = bifidobacterium adolescentis, 12 h, 2 µM
Description: The drug is tested on Bifidobacterium adolescentis strain: ATCC 15703 for biotransformation. The drug concentrations were measured before and after a 12-h incubation by liquid-chromatography-coupled mass spectrometry (LC–MS)

[4] = The drug is tested on Escherichia coli strain: BW25113 for biotransformation. The drug concentrations were measured before and after a 12-h incubation by liquid-chromatography-coupled mass spectrometry (LC–MS); conditions: 2 µM
[5] = The drug is tested on Bifidobacterium ruminantium strain: fecal isolate for biotransformation. The drug concentrations were measured before and after a 12-h incubation by liquid-chromatography-coupled mass spectrometry (LC–MS); conditions: 2 µM
[6] = The drug is tested on Subdoligranulum variabile strain: DSM15176 for biotransformation. The drug concentrations were measured before and after a 12-h incubation by liquid-chromatography-coupled mass spectrometry (LC–MS); conditions: 2 µM
[7] = The drug is tested on Enterococcus faecalis strain: V583 for biotransformation. The drug concentrations were measured before and after a 12-h incubation by liquid-chromatography-coupled mass spectrometry (LC–MS); conditions: 2 µM
[8] = The drug is tested on Dorea formicigenerans strain: ATCC27755 for biotransformation. The drug concentrations were measured before and after a 12-h incubation by liquid-chromatography-coupled mass spectrometry (LC–MS); conditions: 2 µM
[9] = The drug is tested on Ruminococcus gnavus strain: ATCC29149 for biotransformation. The drug concentrations were measured before and after a 12-h incubation by liquid-chromatography-coupled mass spectrometry (LC–MS); conditions: mediterraneibacter gnavus, 2 µM
[10] = The drug is tested on Providencia rettgeri strain: DSM1131 for biotransformation. The drug concentrations were measured before and after a 12-h incubation by liquid-chromatography-coupled mass spectrometry (LC–MS); assay type: ADME; design: dose 2 uM, timepoint 0 vs 12 hours; conditions: 2 µM
[11] = The drug is tested on Bacteroides uniformis strain: ATCC8492 for biotransformation. The drug concentrations were measured before and after a 12-h incubation by liquid-chromatography-coupled mass spectrometry (LC–MS); conditions: 2 µM
[12] = The drug is tested on Clostridium sp. strain: fecal isolate for biotransformation. The drug concentrations were measured before and after a 12-h incubation by liquid-chromatography-coupled mass spectrometry (LC–MS); conditions: 2 µM
[13] = The drug is tested on Eggerthella lenta strain: ATCC25559 for biotransformation. The drug concentrations were measured before and after a 12-h incubation by liquid-chromatography-coupled mass spectrometry (LC–MS); conditions: 2 µM
[14] = bacteroides eggerthii, 12 h, 2 µM
Description: The drug is tested on Bacteroides eggerthii strain: DSM20697 for biotransformation. The drug concentrations were measured before and after a 12-h incubation by liquid-chromatography-coupled mass spectrometry (LC–MS)

[15] = The drug is tested on Bacteroides pectinophilus strain: ATCC43243 for biotransformation. The drug concentrations were measured before and after a 12-h incubation by liquid-chromatography-coupled mass spectrometry (LC–MS); conditions: 2 µM
[16] = The drug is tested on Anaerotruncus colihominis strain: DSM17241 for biotransformation. The drug concentrations were measured before and after a 12-h incubation by liquid-chromatography-coupled mass spectrometry (LC–MS); conditions: 2 µM
[17] = The drug is tested on Clostridium asparagiforme strain: DSM15981 for biotransformation. The drug concentrations were measured before and after a 12-h incubation by liquid-chromatography-coupled mass spectrometry (LC–MS); assay type: ADME; design: dose 2 uM, timepoint 0 vs 12 hours; conditions: enterocloster asparagiformis, 2 µM
[18] = The drug is tested on Bacteroides dorei strain: DSM17855 for biotransformation. The drug concentrations were measured before and after a 12-h incubation by liquid-chromatography-coupled mass spectrometry (LC–MS); conditions: phocaeicola dorei, 2 µM
[19] = The drug is tested on Enterobacter cancerogenus strain: ATCC35316 for biotransformation. The drug concentrations were measured before and after a 12-h incubation by liquid-chromatography-coupled mass spectrometry (LC–MS); conditions: 2 µM
[20] = The drug is tested on Clostridium scindens strain: ATCC35704 for biotransformation. The drug concentrations were measured before and after a 12-h incubation by liquid-chromatography-coupled mass spectrometry (LC–MS); conditions: 2 µM

Measured: Bacterial Biotransformation

CC(=O)OCC(=O)[C@@]12N=C(C)O[C@@H]1C[C@H]1[C@@H]3CCC4=CC(=O)C=C[C@]4(C)[C@H]3[C@@H](O)C[C@@]12C [DEFLAZACORT]
Compound metabolized: all assays above

COc1c(C)c2c(c(O)c1C/C=C(\C)CCC(=O)OCCN1CCOCC1)C(=O)OC2 [MYCOPHENOLATE MOFETIL]
Compound metabolized: all assays above
